Laboratory results reported in ChEMBL document CHEMBL1145498, “A systematic interaction map of validated kinase inhibitors with Ser/Thr kinases” (Proc Natl Acad Sci U S A, 2007).

How the values were obtained:
[1] = biological target: Calcium/calmodulin-dependent protein kinase type II subunit delta (Homo sapiens) (UniProt Q13557)
[2] = biological target: Calcium/calmodulin-dependent protein kinase type II subunit gamma (Homo sapiens) (UniProt Q13555)
[3] = biological target: T1, 3-phosphoinositide-dependent protein kinase 1 (Homo sapiens) (UniProt O15530)
T1 sequence (whole entry): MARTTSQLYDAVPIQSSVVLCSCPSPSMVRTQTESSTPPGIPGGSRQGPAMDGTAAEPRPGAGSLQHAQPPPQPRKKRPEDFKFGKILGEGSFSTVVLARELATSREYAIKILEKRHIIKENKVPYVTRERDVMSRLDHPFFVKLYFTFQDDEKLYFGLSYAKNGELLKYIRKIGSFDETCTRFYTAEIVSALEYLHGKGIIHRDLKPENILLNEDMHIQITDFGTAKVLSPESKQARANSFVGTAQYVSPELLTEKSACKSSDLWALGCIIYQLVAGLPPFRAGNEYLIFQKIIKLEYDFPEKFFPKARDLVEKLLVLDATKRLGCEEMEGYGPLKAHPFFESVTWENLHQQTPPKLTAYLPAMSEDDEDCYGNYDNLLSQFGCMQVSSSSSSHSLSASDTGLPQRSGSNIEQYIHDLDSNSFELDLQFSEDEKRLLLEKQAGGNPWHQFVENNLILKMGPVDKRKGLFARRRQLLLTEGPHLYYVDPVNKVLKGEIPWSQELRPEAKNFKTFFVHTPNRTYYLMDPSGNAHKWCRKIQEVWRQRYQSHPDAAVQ

[4] = biological target: T2, Serine/threonine-protein kinase PLK4 (Homo sapiens) (UniProt O00444)
T2 sequence (whole entry): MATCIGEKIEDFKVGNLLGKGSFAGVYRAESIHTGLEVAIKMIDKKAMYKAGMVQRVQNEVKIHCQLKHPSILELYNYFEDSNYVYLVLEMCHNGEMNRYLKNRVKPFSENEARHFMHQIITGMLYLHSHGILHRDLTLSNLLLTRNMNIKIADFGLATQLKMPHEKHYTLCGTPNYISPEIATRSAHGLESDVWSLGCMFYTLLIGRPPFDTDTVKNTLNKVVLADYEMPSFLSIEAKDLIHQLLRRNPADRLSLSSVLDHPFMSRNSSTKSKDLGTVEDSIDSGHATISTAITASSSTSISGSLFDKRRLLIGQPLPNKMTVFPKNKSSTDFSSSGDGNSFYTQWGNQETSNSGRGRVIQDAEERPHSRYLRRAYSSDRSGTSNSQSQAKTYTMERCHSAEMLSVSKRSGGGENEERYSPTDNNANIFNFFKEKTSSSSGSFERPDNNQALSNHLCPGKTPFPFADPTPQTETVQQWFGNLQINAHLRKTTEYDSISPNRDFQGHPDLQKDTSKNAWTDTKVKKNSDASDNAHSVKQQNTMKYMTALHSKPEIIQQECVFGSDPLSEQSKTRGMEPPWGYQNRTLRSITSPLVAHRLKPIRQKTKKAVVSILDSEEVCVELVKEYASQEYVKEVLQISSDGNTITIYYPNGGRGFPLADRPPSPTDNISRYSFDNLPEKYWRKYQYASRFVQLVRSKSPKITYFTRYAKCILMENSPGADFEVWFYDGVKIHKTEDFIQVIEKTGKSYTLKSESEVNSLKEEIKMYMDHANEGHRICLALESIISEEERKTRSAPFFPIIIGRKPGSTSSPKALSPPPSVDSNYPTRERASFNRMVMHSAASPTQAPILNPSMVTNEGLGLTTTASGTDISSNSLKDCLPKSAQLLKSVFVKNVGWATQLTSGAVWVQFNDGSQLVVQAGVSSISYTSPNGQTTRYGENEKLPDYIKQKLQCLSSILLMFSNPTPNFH

[5] = biological target: T3, Serine/threonine-protein kinase 17A (Homo sapiens) (UniProt Q9UEE5)
T3 sequence (whole entry): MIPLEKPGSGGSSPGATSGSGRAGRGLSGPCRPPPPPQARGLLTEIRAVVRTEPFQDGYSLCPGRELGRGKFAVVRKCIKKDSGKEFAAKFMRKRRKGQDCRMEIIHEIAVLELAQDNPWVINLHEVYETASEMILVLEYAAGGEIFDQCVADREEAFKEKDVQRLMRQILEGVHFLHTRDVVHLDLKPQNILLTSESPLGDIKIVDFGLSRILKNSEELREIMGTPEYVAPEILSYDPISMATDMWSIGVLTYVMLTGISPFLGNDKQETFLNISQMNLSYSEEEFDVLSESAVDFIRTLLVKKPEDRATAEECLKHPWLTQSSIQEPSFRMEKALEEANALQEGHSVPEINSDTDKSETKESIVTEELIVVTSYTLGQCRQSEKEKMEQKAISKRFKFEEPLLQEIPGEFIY

[6] = biological target: T4, Serine/threonine-protein kinase VRK1 (Homo sapiens) (UniProt Q99986)
T4 sequence (whole entry): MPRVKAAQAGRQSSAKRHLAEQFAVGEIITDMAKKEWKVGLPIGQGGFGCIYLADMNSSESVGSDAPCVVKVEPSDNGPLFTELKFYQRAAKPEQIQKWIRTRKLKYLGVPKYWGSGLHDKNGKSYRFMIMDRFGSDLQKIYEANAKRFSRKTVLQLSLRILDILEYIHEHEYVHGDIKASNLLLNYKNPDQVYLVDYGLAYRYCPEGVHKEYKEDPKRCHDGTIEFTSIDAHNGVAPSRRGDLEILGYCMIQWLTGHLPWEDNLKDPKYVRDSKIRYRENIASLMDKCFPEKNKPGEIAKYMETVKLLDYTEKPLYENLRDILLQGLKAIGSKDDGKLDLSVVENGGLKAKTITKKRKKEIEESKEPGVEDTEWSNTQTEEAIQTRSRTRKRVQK

[7] = biological target: Serine/threonine-protein kinase 25 (Homo sapiens) (UniProt O00506)
Serine/threonine-protein kinase 25 (Homo sapiens), sequence (O00506 whole entry, looked up): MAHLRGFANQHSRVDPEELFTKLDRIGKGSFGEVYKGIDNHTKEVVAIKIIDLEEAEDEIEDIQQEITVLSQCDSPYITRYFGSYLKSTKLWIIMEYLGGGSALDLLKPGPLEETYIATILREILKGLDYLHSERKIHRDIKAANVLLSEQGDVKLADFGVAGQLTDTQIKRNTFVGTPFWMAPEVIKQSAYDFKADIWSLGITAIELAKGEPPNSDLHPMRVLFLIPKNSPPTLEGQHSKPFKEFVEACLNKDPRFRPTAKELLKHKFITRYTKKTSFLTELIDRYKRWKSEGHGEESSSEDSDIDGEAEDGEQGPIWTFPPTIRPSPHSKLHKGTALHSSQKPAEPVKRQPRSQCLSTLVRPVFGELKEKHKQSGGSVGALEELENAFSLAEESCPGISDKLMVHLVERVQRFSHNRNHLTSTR

Calcium/calmodulin-dependent protein kinase type II subunit gamma (Homo sapiens), sequence (Q13555 whole entry): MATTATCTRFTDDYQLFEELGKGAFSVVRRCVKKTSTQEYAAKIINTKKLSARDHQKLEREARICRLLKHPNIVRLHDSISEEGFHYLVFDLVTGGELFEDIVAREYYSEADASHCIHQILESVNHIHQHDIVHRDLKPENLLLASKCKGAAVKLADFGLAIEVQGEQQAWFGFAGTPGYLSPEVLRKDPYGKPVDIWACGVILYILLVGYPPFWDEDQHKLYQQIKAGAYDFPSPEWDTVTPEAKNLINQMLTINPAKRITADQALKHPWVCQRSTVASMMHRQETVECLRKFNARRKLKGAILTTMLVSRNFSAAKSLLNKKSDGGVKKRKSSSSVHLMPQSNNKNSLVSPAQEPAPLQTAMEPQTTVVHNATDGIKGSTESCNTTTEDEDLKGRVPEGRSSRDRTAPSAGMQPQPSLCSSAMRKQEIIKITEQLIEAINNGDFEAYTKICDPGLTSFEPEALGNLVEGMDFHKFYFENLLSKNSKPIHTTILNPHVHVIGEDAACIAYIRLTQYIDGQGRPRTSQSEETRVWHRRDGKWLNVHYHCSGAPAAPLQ
Calcium/calmodulin-dependent protein kinase type II subunit delta (Homo sapiens), sequence (Q13557 whole entry): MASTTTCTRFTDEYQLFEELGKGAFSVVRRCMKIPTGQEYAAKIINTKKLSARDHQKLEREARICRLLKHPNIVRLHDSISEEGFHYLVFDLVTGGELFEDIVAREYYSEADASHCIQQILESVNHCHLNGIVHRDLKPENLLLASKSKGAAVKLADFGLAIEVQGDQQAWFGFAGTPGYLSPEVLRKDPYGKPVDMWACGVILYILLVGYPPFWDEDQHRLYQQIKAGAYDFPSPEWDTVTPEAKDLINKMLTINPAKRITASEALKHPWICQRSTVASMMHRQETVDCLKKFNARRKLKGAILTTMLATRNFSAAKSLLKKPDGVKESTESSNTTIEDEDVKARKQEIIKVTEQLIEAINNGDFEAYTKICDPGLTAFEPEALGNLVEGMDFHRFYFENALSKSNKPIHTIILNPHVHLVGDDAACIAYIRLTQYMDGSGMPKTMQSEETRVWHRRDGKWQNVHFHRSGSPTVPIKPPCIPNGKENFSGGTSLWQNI

SMILES	ΔTm [1]	ΔTm [2]	ΔTm [3]	ΔTm [4]	ΔTm [5]	ΔTm [6]	ΔTm [7]
Ic1cccc(CSc2nnc(-c3ccncc3)o2)c1	-0.2 °C	-0.1 °C	-0.6 °C	0.1 °C	0.3 °C	-0.2 °C	-0.3 °C
Nc1ncnc2c1c(I)cn2[C@@H]1O[C@H](CO)[C@@H](O)[C@H]1O	-0.4 °C	0.6 °C	0 °C	2.9 °C	2.8 °C	0.1 °C	4.2 °C
COC(=O)[C@]1(O)C[C@@H]2O[C@@]1(C)n1c3ccccc3c3c4c(c5c6ccccc6n2c5c31)C(=O)NC4 (single isomer, unassigned)	3.5 °C	6.5 °C	-0.4 °C	12.5 °C	17.5 °C	0.2 °C	4.4 °C
Nc1nc(Nc2ccc(S(N)(=O)=O)cc2)nn1C(=S)Nc1c(F)cccc1F	0.7 °C	4.2 °C	0.4 °C	13.1 °C	12.6 °C	1.9 °C	12 °C
Nc1cc2ncnc(Nc3cccc(Br)c3)c2cc1N	-1.6 °C	-0.1 °C	-0.2 °C	1.5 °C	7.7 °C	-0.3 °C	2.5 °C
OC[C@H]1O[C@@H](n2cnc3cc(Cl)c(Cl)cc32)[C@H](O)[C@@H]1O	-0.2 °C	0.1 °C	0.1 °C	0.5 °C	2.1 °C	-0.1 °C	0 °C
CN(C)c1ccc(CC2C(=O)Nc3ccccc32)cc1 (configuration not stated)	0.5 °C	0.2 °C	0.3 °C	2.8 °C	6.2 °C	-0.2 °C	2.4 °C
N#C/C(=C1/Nc2ccccc2S1)c1ccnc(NCCc2cccnc2)n1	2.1 °C	1 °C	-0.1 °C	5.2 °C	4.7 °C	1.3 °C	0.8 °C
Cn1cc(C2=C(c3cn(CCCSC(=N)N)c4ccccc34)C(=O)NC2=O)c2ccccc21	1.1 °C	5.2 °C	0.1 °C	2.6 °C	4.3 °C	1.6 °C	3.9 °C
COc1cc2ncnc(Nc3cccc(Br)c3)c2cc1OC	-0.5 °C	0.1 °C	0 °C	3.4 °C	3.3 °C	0.7 °C	1.4 °C
CC(C)c1cc(/C=C(\C#N)C(=O)NCCCc2ccccc2)cc(C(C)C)c1O	1 °C	0.5 °C	-0.5 °C	0.9 °C	0.8 °C	1 °C	0.7 °C
COC1=C2C[C@@H](C)C[C@H](OC)[C@H](O)[C@@H](C)/C=C(\C)[C@H](OC(N)=O)[C@@H](OC)/C=C\C=C(/C)C(=O)NC(=CC1=O)C2=O	-0.5 °C	0.1 °C	0 °C	0.2 °C	0.3 °C	-0.1 °C	-0.6 °C
CCOc1cc(/C=C(\C#N)C(N)=O)cc(CSc2ccccc2)c1O	-0.2 °C	-0.1 °C	0 °C	2.8 °C	0.6 °C	-0.1 °C	0.6 °C
CN(C)CC1CCn2c(c(C3=C(c4c[nH]c5ccccc45)C(=O)NC3=O)c3ccccc32)C1 (configuration not stated)	0 °C	1.3 °C	-0.1 °C	0.1 °C	5.3 °C	0.5 °C	0.4 °C
O=c1ccc2ccc(O)c(O)c2o1 [DAPHNETIN]	-0.1 °C	0 °C	0 °C	0.3 °C	0.4 °C	0 °C	-0.5 °C
CC(C)n1cnc2c(NCc3ccccc3O)nc(NCCCO)nc21	-0.1 °C	0.1 °C	0.1 °C	0.1 °C	0 °C	0 °C	0.3 °C
CN[C@@H]1CC2O[C@@](C)([C@@H]1OC)n1c3ccccc3c3c4c(c5c6ccccc6n2c5c31)C(=O)NC4	17.1 °C	14.6 °C	-0.7 °C	21.2 °C	17.4 °C	2.2 °C	9.6 °C
CC(C)n1cnc2c(NCc3ccccc3)nc(NCCCO)nc21	-0.1 °C	0.3 °C	0.1 °C	0.3 °C	0 °C	-0.1 °C	0.1 °C
O=C1Nc2ccc(I)cc2/C1=C1/Nc2ccccc2/C1=N\O	3.6 °C	5.4 °C	-0.3 °C	8.7 °C	7 °C	0.1 °C	3.2 °C
O=c1sn(Cc2ccccc2)c(=S)n1Cc1ccccc1	0.6 °C	0.4 °C	0 °C	-0.2 °C	0.2 °C	0.6 °C	0.5 °C
O=c1cc(-c2ccc(O)cc2)oc2cc(O)cc(O)c12	0.7 °C	-11.5 °C	-1.9 °C	5.2 °C	7.3 °C	0.2 °C	4.9 °C
O=C1c2ccccc2-c2n[nH]c3cccc1c23	-0.5 °C	0.8 °C	-0.1 °C	6.3 °C	10 °C	0 °C	4.8 °C
O=S(=O)(NCCNC/C=C/c1ccc(Br)cc1)c1cccc2cnccc12	-0.2 °C	0 °C	-0.7 °C	1.1 °C	1.7 °C	-0.3 °C	1 °C
Cc1cc2ncc(-c3ccccc3)nc2cc1C	0.4 °C	0.4 °C	-0.1 °C	0.1 °C	1.5 °C	1.2 °C	0.3 °C
O=C1NC(=O)C(c2c[nH]c3ccccc23)=C1c1c[nH]c2ccccc12	1 °C	2.2 °C	0 °C	4.2 °C	2.9 °C	0.8 °C	2 °C
Oc1ccc(-c2nc(-c3ccc(F)cc3)c(-c3ccncc3)[nH]2)cc1	-0.1 °C	0.6 °C	-1 °C	1.1 °C	1 °C	0 °C	0.5 °C
